# Results published in US12544391B2, “CD73 inhibitors” (ORIC Pharmaceuticals, Inc., priority 2019, dated 2026).
# Molecular target: T1, CD73 (Homo sapiens, UniProt P21589)
# T1 sequence (P21589 27-549): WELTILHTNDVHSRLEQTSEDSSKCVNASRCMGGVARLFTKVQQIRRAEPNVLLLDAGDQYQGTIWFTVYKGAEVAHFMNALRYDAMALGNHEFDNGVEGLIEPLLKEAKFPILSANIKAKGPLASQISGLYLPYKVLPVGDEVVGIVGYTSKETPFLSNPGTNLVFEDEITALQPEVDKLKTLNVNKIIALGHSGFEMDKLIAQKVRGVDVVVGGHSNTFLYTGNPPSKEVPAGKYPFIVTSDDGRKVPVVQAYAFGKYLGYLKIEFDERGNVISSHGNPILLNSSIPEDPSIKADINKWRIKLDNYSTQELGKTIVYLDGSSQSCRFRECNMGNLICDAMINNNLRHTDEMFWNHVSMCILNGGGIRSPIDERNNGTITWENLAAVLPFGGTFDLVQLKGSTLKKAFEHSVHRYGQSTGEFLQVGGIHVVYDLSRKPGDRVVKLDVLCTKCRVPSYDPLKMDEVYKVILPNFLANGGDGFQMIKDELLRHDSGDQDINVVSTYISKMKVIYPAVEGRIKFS
# Experiment: CD73 biochemical assay, Malachite Green detection of AMP hydrolysis
# Conditions: CD73 320 pM, AMP 15 μM, Malachite Green readout
# Experimental: Assay Reaction Conditions
# • Assay Volume: 70 μl • Reaction Volume: 50 μl • CD73: 0.3208 nM • AMP: 15 μM • Assay Buffer: 2 5 mM Tris-HCL, pH 7.4, 0.01% Brij-35, 0.01% BSA, 5 mM MgCl2 Assay Procedure:
# A clear 384 well plate was used in this assay.
# Made dose titration of testing compounds in assay buffer, 10 points ½ log titrations in duplicates starting at 100 μM. Total volume for each well was 25 μl, with CD73 then added to each well for a final concentration of 320 pM. The solution was then incubated at RT for 15 min. 25 μl of AMP was added to each well for a final concentration of 15 μM, and then incubated at rt for 10 min. 10 μl of Malachite Green Reagent A was then added and allowed to incubate at rt for 10 min. 10 μl of Malachite Green Reagent B was then added and allowed to incubate at rt for 45 min. The absorbance for each sample was read on an Envision plate reader using excitation filter: Cy5 […].
# The ability of the compounds disclosed herein to inhibit CD73 activity was quantified and the respective IC50 values were determined. Table 2 provides the biochemical IC50 values of compounds disclosed herein.
row,IC50,Compound
1,1 to 100 nM,"C[C@](CO)(OC[C@H]1O[C@@H](c2ccc3c(NC4CCCC4)nc(Cl)nn23)[C@H](O)[C@@H]1O)P(=O)(O)O [Example 33, ((S)-2-(((2R,3S,4R,5S)-5-(2-chloro-4-(cyclopentylamino)pyrrolo[2,1-f][1,2,4]triazin-7-yl)-3,4-dihydroxytetrahydrofuran-2-yl)methoxy)-1-hydroxypropan-2-yl)phosphonic acid]"
2,1 to 100 nM,"COC[C@](OC[C@H]1O[C@@H](c2ccc3c(NC4CCCC4)nc(Cl)nn23)[C@H](O)[C@@H]1O)(C(=O)O)P(=O)(O)O [Example 47, (R)-2-(((2R,3S,4R,5S)-5-(2-chloro-4-(cyclopentylamino)pyrrolo[2,1-f][1,2,4]triazin-7-yl)-3,4-dihydroxytetrahydrofuran-2-yl)methoxy)-3-methoxy-2-phosphonopropanoic acid]"
3,≤ 0.5 nM,"COC[C@](CO)(OC[C@H]1O[C@@H](c2ccc3c(NC4CCCC4)nc(Cl)nn23)[C@H](O)[C@@H]1O)P(=O)(O)O [Example 6, ((R)-2-(((2R,3S,4R,5S)-5-(2-Chloro-4-(cyclopentylamino)pyrrolo[2,1-f][1,2,4]triazin-7-yl)-3,4-dihydroxytetrahydrofuran-2-yl)methoxy)-1-hydroxy-3-methoxypropan-2-yl)phosphonic acid]"
4,≤ 0.5 nM,"COC[C@](C)(OC[C@H]1O[C@@H](c2ccc3c(NC4CCCC4)nc(Cl)nn23)[C@H](O)[C@@H]1O)P(=O)(O)O [Example 32, ((R)-2-(((2R,3S,4R,5S)-5-(2-chloro-4-(cyclopentylamino)pyrrolo[2,1-f][1,2,4]triazin-7-yl)-3,4-dihydroxytetrahydrofuran-2-yl)methoxy)-1-methoxypropan-2-yl)phosphonic acid]"
5,≤ 0.5 nM,"COC[C@](CC(=O)O)(OC[C@H]1O[C@@H](c2ccc3c(NC4CCCC4)nc(Cl)nn23)[C@H](O)[C@@H]1O)P(=O)(O)O [Example 45, (R)-3-(((2R,3S,4R,5S)-5-(2-Chloro-4-(Cyclopentylamino)pyrrolo[2,1-f][1,2,4]triazin-7-yl)-3,4-dihydroxytetrahydrofuran-2-yl)methoxy)-4-methoxy-3-phosphonobutanoic acid]"
6,0.5 to 1 nM,"COCC(OC[C@H]1O[C@@H](c2ccc3c(NC4CCCC4)nc(Cl)nn23)[C@H](O)[C@@H]1O)(C(=O)O)P(=O)(O)O (stereo partly drawn) [Example 8, 2-(((2R,3S,4R,5S)-5-(2-Chloro-4-(cyclopentylamino)pyrrolo[2,1-f][1,2,4]triazin-7-yl)-3,4-dihydroxytetrahydrofuran-2-yl)methoxy)-3-methoxy-2-phosphonopropanoic acid]"

# Further lines, the compound ahead of its results:
row,Compound,IC50
1,"COC[C@@](COCc1nn[nH]n1)(OC[C@H]1O[C@@H](c2ccc3c(NC4CCCC4)nc(Cl)nn23)[C@H](O)[C@@H]1O)P(=O)(O)O [Example 10, ((R)-1-((2H-tetrazol-5-yl)methoxy)-2-(((2R,3S,4R,5S)-5-(2-chloro-4-(cyclopentylamino)pyrrolo[2,1-f][1,2,4]triazin-7-yl)-3,4-dihydroxytetrahydrofuran-2-yl)methoxy)-3-methoxypropan-2-yl)phosphonic acid]",1 to 100 nM
2,"O=P(O)(O)[C@](CO)(COCc1nn[nH]n1)OC[C@H]1O[C@@H](c2ccc3c(NC4CCC4)nc(Cl)nn23)[C@H](O)[C@@H]1O [Example 50, ((R)-1-((2H-tetrazol-5-yl)methoxy)-2-(((2R,3S,4R,5S)-5-(2-chloro-4-(cyclobutylamino)pyrrolo[2,1-f][1,2,4]triazin-7-yl)-3,4-dihydroxytetrahydrofuran-2-yl)methoxy)-3-hydroxypropan-2-yl)phosphonic acid]",0.5 to 1 nM
3,"O=P(O)(O)C(CO)(CO)OC[C@H]1O[C@H](c2cnn3c(NC4CCCC4)cc(Cl)nc23)[C@H](O)[C@@H]1O [Example 18, (2-(((2R,3S,4R,5R)-5-(5-Chloro-7-(cyclopentylamino)pyrazolo[1,5-a]pyrimidin-3-yl)-3,4-dihydroxytetrahydrofuran-2-yl)methoxy)-1,3-dihydroxypropan-2-yl)phosphonic acid]",1 to 100 nM
4,"C[C@@]1(c2ccc3c(NC4CCCC4)nc(Cl)nn23)O[C@H](CO[C@@](CO)(COCc2nn[nH]n2)P(=O)(O)O)[C@@H](O)[C@H]1O [Example 36, ((R)-1-((2H-tetrazol-5-yl)methoxy)-2-(((2R,3S,4R,5S)-5-(2-chloro-4-(cyclopentylamino)pyrrolo[2,1-f][1,2,4]triazin-7-yl)-3,4-dihydroxy-5-methyltetrahydrofuran-2-yl)methoxy)-3-hydroxypropan-2-yl)phosphonic acid]",100 to 1000 nM
5,"O=P(O)(O)C(CO)(CO)OC[C@H]1O[C@@H](c2ccc3c(NCc4ccccc4Cl)nc(Cl)nn23)[C@H](O)[C@@H]1O [Example 27, (2-(((2R,3S,4R,5S)-5-(2-chloro-4-((2-chlorobenzyl)amino)pyrrolo[2,1-f][1,2,4]triazin-7-yl)-3,4-dihydroxytetrahydrofuran-2-yl)methoxy)-1,3-dihydroxypropan-2-yl)phosphonic acid]",1 to 100 nM
6,"O=P(O)(O)[C@@](CO)(Cc1nn[nH]n1)OC[C@H]1O[C@@H](c2ccc3c(NC4CCCC4)nc(Cl)nn23)[C@H](O)[C@@H]1O [Example 1, ((R)-2-(((2R,3S,4R,5S)-5-(2-Chloro-4-(cyclopentylamino)pyrrolo[2,1-f][1,2,4]triazin-7-yl)-3,4-dihydroxytetrahydrofuran-2-yl)methoxy)-1-hydroxy-3-(2H-tetrazol-5-yl)propan-2-yl)phosphonic acid]",≤ 0.5 nM
7,"O=P(O)(O)C(COCc1nnn[nH]1)(COCc1nnn[nH]1)OC[C@H]1O[C@@H](c2ccc3c(NC4CCCC4)nc(Cl)nn23)[C@H](O)[C@@H]1O [Example 28, (1,3-bis((1H-tetrazol-5-yl)methoxy)-2-(((2R,3S,4R,5S)-5-(2-chloro-4-(cyclopentylamino)pyrrolo[2,1-f][1,2,4]triazin-7-yl)-3,4-dihydroxytetrahydrofuran-2-yl)methoxy)propan-2-yl)phosphonic acid]",≤ 0.5 nM
8,"O=P(O)(O)[C@@](CO)(COCc1nn[nH]n1)OC[C@H]1O[C@@H](c2ccc3c(N[C@@H]4CCc5ccccc54)nc(Cl)nn23)[C@H](O)[C@@H]1O [Example 41, ((S)-1-((2H-tetrazol-5-yl)methoxy)-2-(((2R,3S,4R,5S)-5-(2-chloro-4-(((R)-2,3-dihydro-1H-inden-l-yl)amino)pyrrolo[2,1-f][1,2,4]triazin-7-yl)-3,4-dihydroxytetrahydrofuran-2-yl)methoxy)-3-hydroxypropan-2-yl)phosphonic acid]",≤ 0.5 nM
9,"COCC(CO)(OC[C@H]1O[C@@H](c2cnn3c(NC4CCCC4)cc(Cl)nc23)[C@H](O)[C@@H]1O)P(=O)(O)O (stereo partly drawn) [Example 56, (2-(((2R,3S,4R,5S)-5-(5-chloro-7-(cyclopentylamino)pyrazolo[1,5-a]pyrimidin-3-yl)-3,4-dihydroxytetrahydrofuran-2-yl)methoxy)-1-hydroxy-3-methoxypropan-2-yl)phosphonic acid]",1 to 100 nM
10,"O=P(O)(O)[C@](CO)(COCc1nn[nH]n1)OC[C@H]1O[C@@H](c2ccc3c(NCC4CC4)nc(Cl)nn23)[C@H](O)[C@@H]1O [Example 54, ((R)-1-((2H-tetrazol-5-yl)methoxy)-2-(((2R,3S,4R,5S)-5-(2-chloro-4-((cyclopropylmethyl)amino)pyrrolo[2,1-f][1,2,4]triazin-7-yl)-3,4-dihydroxytetrahydrofuran-2-yl)methoxy)-3-hydroxypropan-2-yl)phosphonic acid]",1 to 100 nM
11,"O=P(O)(O)C(CO)(COCc1nn[nH]n1)OC[C@H]1O[C@@H](c2ccc3c(NC4CCCC4)nc(Cl)nn23)[C@H](O)[C@@H]1O (stereo partly drawn) [Example 20, (1-((2H-tetrazol-5-yl)methoxy)-2-(((2R,3S,4R,5S)-5-(2-chloro-4-(cyclopentylamino)pyrrolo[2,1-f][1,2,4]triazin-7-yl)-3,4-dihydroxytetrahydrofuran-2-yl)methoxy)-3-hydroxypropan-2-yl)phosphonic acid]",≤ 0.5 nM
12,"O=P(O)(O)[C@](CO)(COCc1nn[nH]n1)OC[C@H]1O[C@@H](c2ccc3c(NCC4CCCC4)nc(Cl)nn23)[C@H](O)[C@@H]1O [Example 48, ((R)-1-((2H-tetrazol-5-yl)methoxy)-2-(((2R,3S,4R,5S)-5-(2-chloro-4-((cyclopentylmethyl)amino)pyrrolo[2,1-f][1,2,4]triazin-7-yl)-3,4-dihydroxytetrahydrofuran-2-yl)methoxy)-3-hydroxypropan-2-yl)phosphonic acid]",1 to 100 nM
13,"O=P(O)(O)C(CO)(CO)OC[C@H]1O[C@@H](c2ccc3c(NC4CCCC4)nc(Cl)nn23)[C@H](O)[C@@H]1O [Example 11, (2-(((2R,3S,4R,5S)-5-(2-chloro-4-(cyclopentylamino)pyrrolo[2,1-f][1,2,4]triazin-7-yl)-3,4-dihydroxytetrahydrofuran-2-yl)methoxy)-1,3-dihydroxypropan-2-yl)phosphonic acid]",0.5 to 1 nM
